The values that follow come from publication PMC8964423 (Frontiers in Chemistry, 2022).

Bounds are passed on as bounds.

In one experiment the test system is HEK293T. Nature of the experiment: Cell viability assay, HEK293T. In kind it is cell-based, human. The following applies: embryonic kidney cells (non-cancer); treated 2 days; mean ± SD (n = 3). How it is done: (§1) HeLa (ATCC; CCL-2) and CaSki (ATCC; CRL-1550) were cultured in Roswell Park Memorial Institute (RPMI) 1,640 Medium (Gibco; #11875-093) supplemented with heat-inactivated 10% fetal bovine serum (FBS) (Gibco; #16000-044), and 1% penicillin (100 units/mL)/streptomycin (100 μg/mL) solution (Gibco; #15240-062). A375P (ATCC; CRL-3224), HEK293T (ATCC; […] CRL-2541) were cultured in Dulbecco's Modified Eagle's Medium (DMEM) (Gibco; #11995-065) supplemented with heat-inactivated 10% FBS (Gibco; #16000-044), and 1% penicillin/streptomycin solution (Gibco; #15240-062). All types of cells were maintained in 100-mm cell culture dishes in a humidified atmosphere of a 5% CO2 incubator at 37°C. All cells were cultured every 2 days using trypsin (Gibco; #12605-010). […] BF-400-S). […] […]), carboplatin (Sigma; […] After changing the culture medium to 100 μL of fresh culture medium, 10 μL of Ez-cytox solution (Dogen; EZ-BULK150) was added to the 96-well plate. […] Synergy).

A further experiment concerns Caski. Put plainly: Cell viability assay, CaSki. In kind it is cell-based, human. The following applies: cervical cancer; treated 2 days; mean ± SD (n = 3). How it is done:
as §1

Another experiment concerns HeLa. Nature of the experiment: Cell viability assay (Ez-cytox; Table 1 says MTT), HeLa. In kind it is cell-based, human. The following applies: cervical cancer; treated 2 days; mean ± SD (n = 3). The procedure:
as §1

For the next experiment, the system named is C8-D1A. Put plainly: Cell viability assay, C8-D1A. In kind it is cell-based, murine. Conditions: normal astrocyte; treated 2 days; mean ± SD (n = 3). How it is done:
as §1

For the next experiment, the system named is A375P. Nature of the experiment: Cell viability assay, A375P. It is filed as cell-based, human. Conditions: skin melanoma; treated 2 days; mean ± SD (n = 3). The procedure:
as §1

Experiment [1] relates to HeLa cells. Nature of the experiment: ICP-MS metal accumulation in DNA and proteins of HeLa cells. It is filed as cell-based, human. The following applies: 10 μM, 1, 2, 4 and 8 h. The procedure: After washing with 1× phospho-buffered saline (PBS, Welgene; ML008-02), HeLa cells harvested by trypsinization (Gibco; #12605-010) were used for either protein or DNA extraction. […] The concentration of the soluble protein fraction was measured by BCA (bicinchoninic acid) protein assay kit (Thermo; #23225). Cell lysates were digested in concentrated HNO3 at 160°C for 3 h and rested at room temperature overnight. The digested cell lysates were diluted in DW to make the final concentration of HNO3 less than 5%. […] The metal accumulations in proteins were expressed as ng Pt or Re/mg protein. In order to quantify metal accumulations in DNA, cells were re-suspended in 300 μL of lysis buffer [100 mM NaCl, 25 mM EDTA (Acros; #11843-5000), 0.5% SDS (w/v) (Acros; #230420100), 0.1 mg/ml proteinase K (Merck; #70663-4CN), and 10 mM Tris-HCl, pH 8.0] and incubated at 50°C overnight. A 300 μL of phenol:chloroform:isoamyl alcohol mixture (25:24:1, Sigma; #77617) was added to cell lysates and shaken vigorously. After centrifugation at 13,000 g for 5 min, upper layer containing DNA, out of two layers, was transferred to a new tube. […] DNA concentration was quantified by measuring the absorbance at 260 nm. […] Metal contents in DNA were quantified by ICP-MS as same method as measuring metal contents in protein. The metal accumulations in DNA were expressed as ng Pt or Re/mg DNA.

Experiment [2] has as its system HeLa cells. Nature of the experiment: Flow cytometry apoptosis analysis (Annexin V-FITC) in HeLa cells. It is filed as cell-based, human. Conditions: 10 μM TRIP or 50 μM etoposide, 24 h. On the technique in general: Flow cytometry measures light scatter and fluorescence of single cells or particles in a stream.
Experimental: HeLa cells were treated with each compound for the designated time and dose, or transfected with siRNAs using Lipofectamine RNAiMAX (Thermo; #15338100). The cells were trypsinized and re-suspended in PBS containing 2% FBS (Gibco; #16000-044). To measure mitochondrial reactive oxygen species (ROS) and polarization, we stained the same number of re-suspended cells with either 2.5 μM of mitoSOX (Invitrogen; M36008) or 500 nM of TMRE (tetramethylrhodamine ethyl ester) (Invitrogen; T669) at 37°C for 1 h. To measure apoptosis, we also stained the same number of re-suspended cells with Annexin V-FITC Apoptosis Staining and Detection Kit (Abcam; ab14085) according to the manufacturer’s protocol. The stained cells were subjected to flow cytometry analysis using FACSAria II (BD).
The test system of another experiment is CHOP. Put plainly: Immunoblotting of CHOP signaling pathways in HeLa cells. In kind it is cell-based, human. How it is done: The concentration of the soluble protein fraction was measured by BCA protein assay kit (Thermo; #23225).
In general terms: Immunoblotting shows a protein as a band on a membrane.

Experiment [3] concerns HeLa cells. Nature of the experiment: Mitochondrial monitoring in live HeLa cells (mitochondrial fission). Conditions: 10 μM TRIP, 50 μM Mdivi-1 pre-treated 1 h.

As a reminder, the IC50 is the concentration at which inhibition is half-maximal. As to `N.N.O=C([O-])C1(C(=O)[O-])CCC1.[Pt+2]` [Carboplatin, carboplatin], the IC50 in the experiment with HEK293T is 49.6 ± 6.99 µM; in the experiment on Caski, 22.73 ± 0.2 µM; in the experiment with HeLa, 40.5 ± 2.62 µM; in the experiment on C8-D1A, 23.66 ± 0.21 µM; in the experiment on A375P, 23 ± 0.85 µM.

In the case of `N.N.[Cl][Pt][Cl]` [Cisplatin, cisplatin], the IC50 with HEK293T amounted to 8.33 ± 0.3 µM; with Caski, 7.89 ± 0.26 µM; in the experiment with HeLa, 9.2 ± 0.38 µM; in the experiment with C8-D1A it was 10.2 ± 0.23 µM; in the experiment on A375P, 8.35 ± 0.37 µM. The “metal accumulation in DNA and proteins (Pt for cisplatin, Re for TRIP)” value with HeLa cells [1] is “induced the DNA platination in a time-dependent manner”.

On to `COc1cc([C@@H]2c3cc4c(cc3[C@@H](O[C@@H]3O[C@@H]5CO[C@@H](C)O[C@H]5[C@H](O)[C@H]3O)[C@H]3COC(=O)[C@H]23)OCO4)cc(OC)c1O` [Etoposide, etoposide], for which the “mode of cell death” value in the experiment on HeLa cells [2] is listed as “via apoptosis, not necrosis”.

On to `COc1cc(-n2c(=S)[nH]c3ccccc3c2=O)c(Cl)cc1Cl` [Mdivi-1], for which the “effect on TRIP-induced CHOP activation” value in the experiment on CHOP (50 μM Mdivi-1 co-treatment with TRIP) is “accelerated TRIP-induced CHOP activation”. For the same compound, the “effect on thapsigargin-induced CHOP activation” value with CHOP (Mdivi-1 co-treatment with thapsigargin) is reported as “did not boost thapsigargin-induced CHOP activation”. The mitochondrial fission entry in the experiment on HeLa cells [3] was “could be blocked by Mdivi-1 treatment”.

Regarding `C/C=C(/C)C(=O)O[C@H]1C(C)=C2[C@H]([C@@H]1OC(=O)CCCCCCC)[C@@](C)(OC(C)=O)C[C@H](OC(=O)CCC)[C@@]1(O)[C@H]2OC(=O)[C@@]1(C)O` [thapsigargin], in the experiment on CHOP (200 nM thapsigargin), the “time to activation of p-eIF2α/ATF4 signaling pathway” value is recorded as at most 1 h. Besides, the “time after which CHOP activation was observed” value in the experiment on CHOP (200 nM thapsigargin or 10 μM TRIP) is on record as 2 h.
